The source of these data is US6903118B1, “Piperazinyl-substituted pyridylalkane, alkene and alkine carboxamides” (Klinge Pharma GmbH, priority 1997, dated 2005).

As a reminder, the melting point is the temperature, or range, at which the solid turns liquid. Take `O=C(C=Cc1cccnc1)NCCC(O)CN1CCN(C(c2ccccc2)c2ccccc2)CC1` (stereo not shown) [Substance 29, N-[4-(4-diphenylmethyl-piperazin-1-yl)-3-hydroxy-butyl]-3-pyridin-3-yl-acrylamide]: the melting point lay within 168 to 171 °C. Take `O=C(C=Cc1cccnc1)NOCCCN1CCN(C(c2ccccc2)c2ccccc2)CC1` [Substance 30, N-[3-(4-diphenylmethylpiperazin-1-yl)-propoxy]-3-pyridin-3-yl-acrylamide]: the melting point is 115 to 117 °C.

Molecule `O=C(C=Cc1cccnc1)NCCCS(=O)(=O)N1CCN(C(c2ccccc2)c2ccccc2)CC1` [Substance 32, N-[3-(4-diphenylmethyl-piperazin-1-yl-sulfonyl)-propyl]-3-pyridin-3-yl-acrylamide] showed a melting point of 167 to 168 °C. Take `O=C(C=Cc1cccnc1)NCCCCN1CCN(c2ccccc2-c2ccccc2)CC1` [Substance 68, N-[4-(4-biphenyl-2-yl-piperazin-1-yl)-butyl)-3-pyridin-3-yl-acrylamide]: the melting point is 115 °C.

The molecule `O=C(C=Cc1cccnc1)NCCCCN1CCN(C2CCCc3ccccc32)CC1` (stereo not shown) [Substance 87, 3-pyridin-3-yl-N-{4-[4-(1,2,3,4-tetrahydronaphthalin-1-yl)-piperazin-1-yl]-butyl}-acrylamide] registered a melting point of 110 to 114 °C. `O=C(C=Cc1cccnc1)NCCCCN1CCN(c2cccc3c2CCCC3)CC1` [Substance 94, 3-pyridin-3-yl-N-[4-(4-{5,6,7,8-tetrahydro-naphthalin-1-yl}-piperazin-1-yl)-butyl]-acrylamide] had a melting point of 108 to 109 °C. To `O=C(C=Cc1cccnc1)NCCN1CCN(S(=O)(=O)c2ccc3ccccc3c2)CC1` [Substance 227, N-{2-[4-(naphthalin-2-yl-sulfonyl)-piperazin-1-yl]-ethyl}-3-pyridin-3-yl-acrylamide] belongs 183 to 184 °C.
